Experimental data: PMC3206020, “Analogous Mechanisms of Resistance to Benzothiazinones and Dinitrobenzamides in Mycobacterium smegmatis” (PLoS ONE, 2011)

Key:
NfnB = target: T1, NfnB (Mycolicibacterium smegmatis, UniProt A0R6D0); assay: LC/MS/MS detection of conversion of DNB1 to its hydroxylamine by purified NfnB; assay type: biochemical
T1 construct: purified NfnB protein

DprE1 (MSMEG_6382) = target: T2, DprE1 (MSMEG_6382) (Mycolicibacterium smegmatis, UniProt A0R607); assay: steady-state fluorescence titration (enzyme-bound FAD fluorescence); assay type: binding
T2 construct: recombinant DprE1 expressed as N-terminal six-histidine and thioredoxin fusion (pET-32b), digested with PreScission Protease

## COc1ccc(OCCNC(=O)c2cc([N+](=O)[O-])cc([N+](=O)[O-])c2)cc1 [DNB1, N-(2-(4-methoxyphenoxy)ethyl)-3,5-dinitrobenzamide]
NfnB
  LC/MS/MS detection of conversion of DNB1 to its hydroxylamine by purified NfnB: NfnB was able to convert DNB1 into the corresponding hydroxyl amine-derivative in the presence of NADPH
DprE1 (MSMEG_6382)
  Kd: 7.3 ± 0.8 µM

## O=C(NCCOCc1cccc(Cl)c1)c1cc([N+](=O)[O-])cc([N+](=O)[O-])c1 [DNB3, N-(2-(3-chlorobenzyloxy)ethyl)-3,5-dinitrobenzamide]
DprE1 (MSMEG_6382)
  Kd: 1.8 ± 0.1 µM
